Measured values as given in US20240182407A1, “QUINOLINE COMPOUND SALT OR CRYSTAL FORM, PREPARATION METHOD THEREFOR, AND APPLICATION THEREOF” (Nanjing Zenshine Pharmaceuticals Co., Ltd., priority 2021, published 2024).

Experiments:
[1] = target: T1, PI3Kδ (p110δ/p85a) (Homo sapiens, UniProt O00329); experiment: ADP-Glo kinase inhibition, PI3Kδ; conditions: read-out: IC50 PI3Kδ Biochemical
T1 construct: purchased Invitrogen PV6452
Description: (§1) In Example 7, the inhibitory effects of Sample 6 prepared in Example 6 above on kinases PI3Kα, PI3Kβ, PI3Kγ and PI3Kδ were tested.
(§2) The kinases used in the experiment were respectively purchased from: • PI3Kα (p110α/p85α), purchased from Invitrogen, under Cat. No. PV4788; • PI3Kβ (p110β), purchased from eurofins, under Cat. No. 14-603M; • PI3Kδ (p110δ/p85a), purchased from Invitrogen, under Cat. No. PV6452; and • PI3Kγ (p110γ), purchased from Invitrogen, under Cat. No. PR8641C. • Firstly, a 1× kinase buffer solution was prepared, which comprised: • 50 mM HEPES, pH 7.5 • 3 mM MgCl2 • 1 mM EGTA • 100 mM NaCl • 0.03% CHAPS • 2 mM DTT
On kinase PI3Kδ, the final detection concentration of the compound was 1 μM. 100× concentration was prepared, i.e., 100 μM. 90 μL of 100% DMSO was added to the second well in row B on a 96-well plate, 10 μL of a 1000 μM compound solution was then taken from the second well in row A, and 3-fold serial dilution was made to obtain a total of 10 concentrations.
(§3) 50 μL of 100% DMSO was transferred to two empty wells as Max well and Min well, respectively.
50 nL of the compound was transferred into a 384-well plate using ECHO550. […]
(§4) Finally, the chemiluminescence values were read from Envision 2104 Multi-label Reader and subjected to curve fitting, and IC50 was calculated.

[2] = target: T2, PI3Kγ (p110γ) (Homo sapiens, UniProt P48736); experiment: ADP-Glo kinase inhibition, PI3Kγ; conditions: read-out: IC50 PI3Kγ Biochemical
T2 construct: purchased Invitrogen PR8641C
T2 sequence (P48736 whole entry): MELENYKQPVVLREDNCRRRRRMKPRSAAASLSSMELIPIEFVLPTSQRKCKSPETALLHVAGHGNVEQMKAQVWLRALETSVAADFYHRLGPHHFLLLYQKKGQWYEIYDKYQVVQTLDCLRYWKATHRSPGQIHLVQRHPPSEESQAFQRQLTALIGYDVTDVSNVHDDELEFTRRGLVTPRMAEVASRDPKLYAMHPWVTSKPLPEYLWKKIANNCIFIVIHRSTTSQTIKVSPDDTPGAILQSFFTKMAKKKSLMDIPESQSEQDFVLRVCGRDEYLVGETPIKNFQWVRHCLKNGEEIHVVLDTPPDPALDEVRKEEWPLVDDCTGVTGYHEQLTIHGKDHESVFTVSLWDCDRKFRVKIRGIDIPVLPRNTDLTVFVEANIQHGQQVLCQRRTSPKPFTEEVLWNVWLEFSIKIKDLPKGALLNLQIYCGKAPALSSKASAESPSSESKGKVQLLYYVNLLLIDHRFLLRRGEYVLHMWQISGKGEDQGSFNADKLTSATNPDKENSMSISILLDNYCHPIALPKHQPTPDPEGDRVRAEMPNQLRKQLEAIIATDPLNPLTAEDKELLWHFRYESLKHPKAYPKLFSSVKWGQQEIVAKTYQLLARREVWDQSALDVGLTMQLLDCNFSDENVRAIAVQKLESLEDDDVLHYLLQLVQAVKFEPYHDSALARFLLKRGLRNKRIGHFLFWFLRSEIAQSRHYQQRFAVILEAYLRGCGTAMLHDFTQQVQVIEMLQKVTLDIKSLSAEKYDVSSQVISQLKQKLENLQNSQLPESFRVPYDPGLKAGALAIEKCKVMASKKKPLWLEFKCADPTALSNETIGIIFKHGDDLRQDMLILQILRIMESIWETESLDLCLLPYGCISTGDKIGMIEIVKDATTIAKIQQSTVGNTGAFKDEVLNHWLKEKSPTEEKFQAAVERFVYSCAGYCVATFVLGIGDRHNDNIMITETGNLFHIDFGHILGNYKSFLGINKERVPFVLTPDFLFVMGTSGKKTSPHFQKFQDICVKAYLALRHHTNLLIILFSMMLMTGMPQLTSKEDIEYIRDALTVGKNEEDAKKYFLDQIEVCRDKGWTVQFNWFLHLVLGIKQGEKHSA
Description: as §1, §2
On kinases PI3Kα, PI3Kβ and PI3Kγ, the final detection concentration of the compound was 10 μM. 100× concentration was prepared, i.e., 1000 μM. 90 μL of 100% DMSO was added to the second well in row A on a 96-well plate, 10 μL of a 10 mM compound solution was then added, and 3-fold serial dilution was made to obtain a total of 10 concentrations.
as §3
50 nL of the compound was transferred into a 384-well plate using ECHO550.
Preparation of 2× kinase solution: the kinase was added to a 1× kinase buffer to prepare a 2× enzyme solution. […]
as §4

[3] = target: T3, PI3Kδ (Homo sapiens, UniProt O00329); experiment: Akt phosphorylation in Raji cells stimulated by IgM (AlphaLISA); conditions: phosphorylation of Akt, read-out: IC50 PI3Kδ Cell-based
T3 construct: host or cells: Raji cells
T3 sequence (O00329 whole entry): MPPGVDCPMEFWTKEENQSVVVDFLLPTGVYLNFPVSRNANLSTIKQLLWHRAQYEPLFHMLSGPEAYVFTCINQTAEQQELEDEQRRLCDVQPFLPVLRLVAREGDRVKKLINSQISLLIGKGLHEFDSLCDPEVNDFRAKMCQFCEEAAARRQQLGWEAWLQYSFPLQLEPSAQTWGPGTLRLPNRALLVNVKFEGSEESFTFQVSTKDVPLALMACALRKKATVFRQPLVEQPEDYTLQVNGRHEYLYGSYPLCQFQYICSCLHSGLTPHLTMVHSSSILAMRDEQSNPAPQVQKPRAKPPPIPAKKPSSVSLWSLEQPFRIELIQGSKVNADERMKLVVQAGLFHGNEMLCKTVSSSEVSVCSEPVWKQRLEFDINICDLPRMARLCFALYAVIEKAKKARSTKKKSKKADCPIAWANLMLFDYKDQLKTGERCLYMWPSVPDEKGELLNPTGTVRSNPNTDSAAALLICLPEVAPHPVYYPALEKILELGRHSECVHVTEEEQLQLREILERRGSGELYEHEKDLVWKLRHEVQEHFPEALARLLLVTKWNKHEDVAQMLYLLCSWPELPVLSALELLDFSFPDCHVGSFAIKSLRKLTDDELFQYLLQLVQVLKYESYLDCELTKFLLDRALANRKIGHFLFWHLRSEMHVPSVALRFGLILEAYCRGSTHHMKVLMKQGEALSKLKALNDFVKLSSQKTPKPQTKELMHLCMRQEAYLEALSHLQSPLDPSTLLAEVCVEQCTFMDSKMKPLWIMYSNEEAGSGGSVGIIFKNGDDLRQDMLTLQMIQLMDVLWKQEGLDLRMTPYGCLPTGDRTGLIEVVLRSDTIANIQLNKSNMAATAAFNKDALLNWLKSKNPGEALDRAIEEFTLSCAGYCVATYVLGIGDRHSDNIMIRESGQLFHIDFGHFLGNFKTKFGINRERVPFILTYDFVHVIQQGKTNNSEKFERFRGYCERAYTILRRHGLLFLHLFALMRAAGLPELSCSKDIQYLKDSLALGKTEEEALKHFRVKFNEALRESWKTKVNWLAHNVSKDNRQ
T3 sequence (P27986 whole entry partner): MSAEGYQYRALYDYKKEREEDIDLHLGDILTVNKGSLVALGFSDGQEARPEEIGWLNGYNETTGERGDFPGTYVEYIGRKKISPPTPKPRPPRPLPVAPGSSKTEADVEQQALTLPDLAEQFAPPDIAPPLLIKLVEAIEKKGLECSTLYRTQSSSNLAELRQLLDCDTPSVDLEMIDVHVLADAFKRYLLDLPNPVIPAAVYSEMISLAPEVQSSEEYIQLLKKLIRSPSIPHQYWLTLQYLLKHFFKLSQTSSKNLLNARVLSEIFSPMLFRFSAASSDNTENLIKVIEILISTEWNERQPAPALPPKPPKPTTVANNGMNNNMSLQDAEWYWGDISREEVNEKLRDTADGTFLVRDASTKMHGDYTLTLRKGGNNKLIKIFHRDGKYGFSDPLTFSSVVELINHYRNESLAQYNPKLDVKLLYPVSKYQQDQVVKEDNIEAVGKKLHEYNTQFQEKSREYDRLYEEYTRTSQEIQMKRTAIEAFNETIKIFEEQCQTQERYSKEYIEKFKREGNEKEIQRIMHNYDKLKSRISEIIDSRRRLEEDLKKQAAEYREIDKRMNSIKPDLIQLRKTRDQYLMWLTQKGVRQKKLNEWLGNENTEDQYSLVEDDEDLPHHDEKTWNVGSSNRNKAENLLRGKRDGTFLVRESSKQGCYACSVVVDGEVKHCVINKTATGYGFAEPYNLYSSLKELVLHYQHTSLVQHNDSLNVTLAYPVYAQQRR
Description: (§5) In addition, taking Sample 6 as an example, the inhibitory effects thereof on PI3Kα, PI3Kβ, PI3Kγ and PI3Kδ in corresponding cells were determined. The activity of PI3Kα was detected by the phosphorylation level of Akt in C2Cl2 cells stimulated by IGF-1, the activity of PI3Kβ was detected by the phosphorylation level of Akt in PC-3 cells stimulated by LPA, the activity of PI3Kγ was detected by the phosphorylation level of Akt in Raw264.7 cells stimulated by c5α, and the activity of PI3Kδ was detected by the phosphorylation level of Akt in Raji cells stimulated by IgM. The phosphorylation level of Akt in cells was determined by means of AlphaLISA technique from PerkinElemer.
(§6) The C2C12 cells, PC-3 cells, Raw264.7 cells and Raji cells were all purchased from ATCC.

[4] = target: T4, PI3Kβ (Homo sapiens, UniProt P42338); experiment: Akt phosphorylation in PC-3 cells stimulated by LPA (AlphaLISA); conditions: phosphorylation of Akt, read-out: IC50 PI3Kβ Cell-based
T4 construct: host or cells: PC-3 cells
T4 sequence (P42338 whole entry): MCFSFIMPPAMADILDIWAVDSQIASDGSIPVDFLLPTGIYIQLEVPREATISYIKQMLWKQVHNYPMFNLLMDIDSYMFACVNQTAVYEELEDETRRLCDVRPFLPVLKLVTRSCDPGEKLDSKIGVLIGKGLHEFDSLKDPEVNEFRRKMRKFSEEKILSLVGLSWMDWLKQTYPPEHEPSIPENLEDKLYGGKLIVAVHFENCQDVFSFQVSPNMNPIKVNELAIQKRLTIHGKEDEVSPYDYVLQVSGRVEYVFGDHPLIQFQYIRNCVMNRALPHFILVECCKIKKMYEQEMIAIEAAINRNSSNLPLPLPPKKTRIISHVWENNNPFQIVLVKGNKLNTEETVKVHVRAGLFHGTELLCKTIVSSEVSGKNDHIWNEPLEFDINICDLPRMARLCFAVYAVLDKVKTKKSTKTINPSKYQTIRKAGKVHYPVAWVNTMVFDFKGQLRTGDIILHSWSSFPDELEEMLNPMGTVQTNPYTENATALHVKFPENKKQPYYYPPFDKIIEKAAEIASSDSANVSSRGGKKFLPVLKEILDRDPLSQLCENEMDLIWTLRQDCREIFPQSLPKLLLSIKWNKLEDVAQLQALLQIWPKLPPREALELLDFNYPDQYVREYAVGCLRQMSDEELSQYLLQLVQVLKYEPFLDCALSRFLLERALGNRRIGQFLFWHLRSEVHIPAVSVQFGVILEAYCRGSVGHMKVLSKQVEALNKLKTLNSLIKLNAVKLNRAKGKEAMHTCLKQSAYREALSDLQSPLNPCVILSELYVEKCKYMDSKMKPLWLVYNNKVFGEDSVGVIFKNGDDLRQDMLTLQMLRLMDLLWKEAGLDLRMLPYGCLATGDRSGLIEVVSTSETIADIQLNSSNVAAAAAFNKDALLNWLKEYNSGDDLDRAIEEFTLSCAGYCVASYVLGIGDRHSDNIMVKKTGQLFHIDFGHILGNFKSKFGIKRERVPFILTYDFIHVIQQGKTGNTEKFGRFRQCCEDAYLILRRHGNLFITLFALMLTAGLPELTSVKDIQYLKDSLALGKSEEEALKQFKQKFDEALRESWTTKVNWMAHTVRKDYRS
T4 sequence (P27986 whole entry partner): as the sequence (P27986 whole entry partner) above
Description: as §5, §6

T1 sequence (O00329 whole entry): as the sequence (O00329 whole entry) above
T1 sequence (P27986 whole entry partner): as the sequence (P27986 whole entry partner) above

IC50 [1]: 0.49 nM
IC50 [2]: 4.8 nM
IC50 [3]: 0.95 nM
IC50 [4]: 126 nM
Compound: C[C@H](Nc1nc(N)nc(N)c1C#N)c1cc2ccc(F)cc2nc1-c1ccccn1 [p-toluenesulfonate of Compound A]
